Assay results reported in patent US20240317752A1, “6-SUBSTITUTED-9H-PURINE DERIVATIVES AND RELATED USES” (Black Diamond Therapeutics, Inc., priority 2021, published 2024).

Biological target: T1, BaF3 BRAF-KIAA1549 fusion cells (Homo sapiens, UniProt P15056)
T1 construct: The BRAF-KIAA1549 fusion mutant was subcloned into pMXs-IRES-Blasticidin (RTV-016, Cell Biolabs, San Diego, CA); fused on or other part: Q9HCM3 (UPF0606 protein KIAA1549)
Assay: BaF3 BRAF-KIAA1549 fusion cell proliferation assay (CellTiterGlo)
Type: cell-based
Conditions: 96 hours incubation, potency code
Summary of the method: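 BaF3 cells stably transduced with a BRAF-KIAA1549 fusion, blasticidin-selected and growing without IL-3, were treated with compound for 96 h in RPMI/10% heat-inactivated FBS. Viability read as ATP content by CellTiterGlo luminescence, normalised to DMSO-treated cells. IC50 by Levenberg-Marquardt fit.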

T1 sequence (P15056 whole entry, change not shown, the tested form may be a part): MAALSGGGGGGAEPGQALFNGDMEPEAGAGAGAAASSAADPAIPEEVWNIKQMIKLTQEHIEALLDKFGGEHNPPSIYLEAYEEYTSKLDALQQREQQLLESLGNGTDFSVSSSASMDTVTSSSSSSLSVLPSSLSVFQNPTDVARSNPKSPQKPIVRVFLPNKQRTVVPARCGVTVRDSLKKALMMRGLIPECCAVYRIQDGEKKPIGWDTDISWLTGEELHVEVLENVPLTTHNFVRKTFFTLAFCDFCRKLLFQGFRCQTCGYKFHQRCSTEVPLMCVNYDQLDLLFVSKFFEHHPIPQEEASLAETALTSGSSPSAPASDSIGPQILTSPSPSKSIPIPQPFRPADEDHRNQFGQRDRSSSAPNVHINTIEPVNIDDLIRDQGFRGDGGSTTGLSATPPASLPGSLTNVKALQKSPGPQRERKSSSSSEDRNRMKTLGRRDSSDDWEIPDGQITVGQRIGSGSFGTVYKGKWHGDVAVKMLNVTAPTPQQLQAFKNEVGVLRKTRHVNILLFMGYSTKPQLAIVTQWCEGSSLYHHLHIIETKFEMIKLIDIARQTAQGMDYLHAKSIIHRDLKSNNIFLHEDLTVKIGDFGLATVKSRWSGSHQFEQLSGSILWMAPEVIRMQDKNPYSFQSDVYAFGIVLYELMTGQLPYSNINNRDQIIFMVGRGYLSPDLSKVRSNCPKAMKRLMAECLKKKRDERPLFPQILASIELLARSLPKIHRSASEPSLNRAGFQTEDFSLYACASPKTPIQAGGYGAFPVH

Row | SMILES | GI50
1 | Cc1ccc(NC(=O)CN2CCN3CCC2C3)cc1Nc1ncccc1-c1ncnc2[nH]cnc12 (centres unmarked) [Compound I-89, N-(3-((3-(9H-purin-6-yl)pyridin-2-yl)amino)-4-methylphenyl)-2-(1,4-diazabicyclo[3.2.1]octan-4-yl)acetamide] | ≥ 500 nM
2 | C#Cc1cc(C(=O)Nc2ccc(C)c(Nc3ncccc3-c3ncnc4[nH]cnc34)c2)ccc1Cl [Compound I-36, N-(3-((3-(9H-purin-6-yl)pyridin-2-yl)amino)-4-methylphenyl)-4-chloro-3-ethynylbenzamide] | < 20 nM
3 | Cc1ccc(NC(=O)C23CC(Cl)(C2)C3)cc1Nc1ncccc1-c1ncnc2[nH]cnc12 [Compound I-28, N-(3-(3-(9H-purin-6-yl)pyridin-2-ylamino)-4-methylphenyl)-3-chlorobicyclo[1.1.1]pentane-1-carboxamide] | ≥ 500 nM
4 | Cc1ccc(NC(=O)c2cccc(C(C)(C)C#N)c2)nc1Nc1ncccc1-c1ncnc2[nH]cnc12 [Compound I-57, N-(6-((3-(9H-purin-6-yl)pyridin-2-yl)amino)-5-methylpyridin-2-yl)-3-(2-cyanopropan-2-yl)benzamide] | ≥ 500 nM
5 | COc1nc2c(-c3nccnc3Nc3cc(NC(=O)c4cc(C(F)(F)F)ccn4)ccc3C)ncnc2[nH]1 [IA-122, N-(3-(3-(8-methoxy-9H-purin-6-yl)pyrazin-2-ylamino)-4-methylphenyl)-4-(trifluoromethyl)picolinamide] | 20 to 100 nM
6 | Cc1ccc(NC(=O)C[C@@H]2CCO[C@@H](C(F)(F)F)C2)cc1Nc1ncccc1-c1ncnc2[nH]cnc12 (single isomer, unassigned) [IA-148] | 20 to 100 nM
7 | Cc1ccc(C(=O)Nc2cccc(C(F)(F)F)c2)cc1Nc1ncccc1-c1ncnc2[nH]cnc12 [II-3, 3-((3-(9H-Purin-6-yl)pyridin-2-yl)amino)-4-methyl-N-(3-(trifluoromethyl)phenyl)benzamide] | < 20 nM
8 | Cc1nc2c(-c3cccnc3Nc3cc(NC(=O)c4ccnc(C(C)(C)C#N)c4)ccc3C)ncnc2[nH]1 [IA-127, 2-(2-cyanopropan-2-yl)-N-(4-methyl-3-((3-(8-methyl-9H-purin-6-yl)pyridin-2-yl)amino)phenyl)isonicotinamide] | < 20 nM
9 | Cc1ccc(C(=O)Nc2ccc(C)c(Nc3ncccc3-c3ncnc4[nH]cnc34)c2)cc1C#N [Compound I-43, N-(3-((3-(9H-purin-6-yl)pyridin-2-yl)amino)-4-methylphenyl)-3-cyano-4-methylbenzamide] | < 20 nM
10 | Cc1ccc(NC(=O)C[C@@H]2CCO[C@H](C(F)(F)F)C2)cc1Nc1ncccc1-c1ncnc2[nH]cnc12 (single isomer, unassigned) [IA-149] | 20 to 100 nM
11 | Cc1ccc(NC(=O)c2ccc(Cl)c(N(C)C)c2)cc1Nc1ncccc1-c1ncnc2[nH]cnc12 [Compound I-81, N-(3-((3-(9H-purin-6-yl)pyridin-2-yl)amino)-4-methylphenyl)-4-chloro-3-(dimethylamino)benzamide] | < 20 nM
12 | Cc1ccc(NC(=O)C[C@@H]2CCN[C@H](C(F)(F)F)C2)cc1Nc1ncccc1-c1ncnc2[nH]cnc12 (single isomer, unassigned) [IA-142] | 100 to 500 nM
13 | Cc1ccc(NC(=O)C[C@@H]2CCC[C@@H](C(F)(F)F)C2)cc1Nc1ncccc1-c1ncnc2[nH]cnc12 (single isomer, unassigned) [IA-140] | < 20 nM
14 | Cc1ccc(NC(=O)CN2CCC[C@@H](C(F)(F)F)C2)cc1Nc1ncccc1-c1ncnc2[nH]cnc12 [IA-107, (R)—N-(3-((3-(9H-purin-6-yl)pyridin-2-yl)amino)-4-methylphenyl)-2-(3-(trifluoromethyl)piperidin-1-yl)acetamide] | < 20 nM
15 | Cc1ccc(NC(=O)c2cc(C3(C#N)CCC3)ccn2)cc1Nc1ncccc1-c1ncnc2[nH]cnc12 [Compound I-64, N-(3-((3-(9H-purin-6-yl)pyridin-2-yl)amino)-4-methylphenyl)-4-(1-cyanocyclobutyl)picolinamide] | < 20 nM
16 | Cc1ccc(NC(=O)c2ccc(Cl)c(C3(C#N)CC3)c2)cc1Nc1ncccc1-c1ncnc2[nH]cnc12 [Compound I-38, N-(3-((3-(9H-purin-6-yl)pyridin-2-yl)amino)-4-methylphenyl)-4-chloro-3-(1-cyanocyclopropyl)benzamide] | 20 to 100 nM
17 | Cc1ccc(NC(=O)CC2CCCNCC2)cc1Nc1ncccc1-c1ncnc2[nH]cnc12 (centres unmarked) [IA-131, N-(3-(3-(9H-purin-6-yl)pyridin-2-ylamino)-4-methylphenyl)-2-(azepan-4-yl)acetamide] | ≥ 500 nM
18 | Cc1ccc(NC(=O)CN2CCCOCC2)cc1Nc1ncccc1-c1ncnc2[nH]cnc12 [IA-133, N-(3-((3-(9H-purin-6-yl)pyridin-2-yl)amino)-4-methylphenyl)-2-(1,4-oxazepan-4-yl)acetamide] | ≥ 500 nM

Further lines, results first:

Row | GI50 | SMILES
19 | 100 to 500 nM | Cc1cc(C)c(Nc2ncccc2-c2ncnc3[nH]cnc23)cc1NC(=O)c1cc(C(F)(F)F)ccn1 [IA-119, N-(5-((3-(9H-purin-6-yl)pyridin-2-yl)amino)-2,4-dimethylphenyl)-4-(trifluoromethyl)picolinamide]
20 | 20 to 100 nM | Cc1ccc(NC(=O)Cn2cnc(C(F)(F)F)n2)cc1Nc1ncccc1-c1ncnc2[nH]cnc12 [Compound I-78, N-(3-((3-(9H-purin-6-yl)pyridin-2-yl)amino)-4-methylphenyl)-2-(3-(trifluoromethyl)-1H-1,2,4-triazol-1-yl)acetamide]
21 | ≥ 500 nM | Cc1ccc(NC(=O)c2cc(C(F)(F)F)ccn2)cc1Nc1ncccc1-c1nc(F)nc2[nH]cnc12 [IA-151, N-(3-(3-(2-fluoro-9H-purin-6-yl)pyridin-2-ylamino)-4-methylphenyl)-4-(trifluoromethyl)picolinamide]
22 | < 20 nM | Cc1ccc(NC(=O)c2nccc(C(F)(F)F)c2Cl)cc1Nc1ncccc1-c1ncnc2[nH]cnc12 [IA-106, N-(3-(3-(9H-purin-6-yl)pyridin-2-ylamino)-4-methylphenyl)-3-chloro-4-(trifluoromethyl)picolinamide]
23 | 20 to 100 nM | Cc1ccc(NC(=O)c2cc(C(F)(F)F)ccn2)cc1Nc1nccnc1-c1ncnc2[nH]cnc12 [IA-120, N-(3-(3-(9H-purin-6-yl)pyrazin-2-ylamino)-4-methylphenyl)-4-(trifluoromethyl)picolinamide]
24 | 20 to 100 nM | CCc1ccc(NC(=O)c2cc(C(F)(F)F)ccn2)cc1Nc1ncccc1-c1ncnc2[nH]cnc12 [Compound I-68, N-(3-((3-(9H-purin-6-yl)pyridin-2-yl)amino)-4-ethylphenyl)-4-(trifluoromethyl)picolinamide]
25 | ≥ 500 nM | Cc1ccc(NC(=O)c2ccc(C)c(C#N)n2)cc1Nc1ncccc1-c1ncnc2[nH]cnc12 [Compound I-51, N-(3-(3-(9H-purin-6-yl)pyridin-2-ylamino)-4-methylphenyl)-6-cyano-5-methylpicolinamide]
26 | < 20 nM | Cc1ccc(NC(=O)c2ccc(C(F)(F)F)c(C#N)c2)cc1Nc1ncccc1-c1ncnc2[nH]cnc12 [Compound I-42, N-(3-((3-(9H-purin-6-yl)pyridin-2-yl)amino)-4-methylphenyl)-3-cyano-4-(trifluoromethyl)benzamide]
27 | < 20 nM | Cc1nc2c(-c3cccnc3Nc3cc(NC(=O)c4cc(C(F)(F)F)c(F)cn4)ccc3C)ncnc2[nH]1 [IA-128, 5-fluoro-N-(4-methyl-3-((3-(8-methyl-9H-purin-6-yl)pyridin-2-yl)amino)phenyl)-4-(trifluoromethyl)picolinamide]
28 | 100 to 500 nM | Cc1ccc(NC(=O)c2ccc(C(F)(F)F)c(C#N)n2)cc1Nc1ncccc1-c1ncnc2[nH]cnc12 [Compound I-59, N-(3-((3-(9H-purin-6-yl)pyridin-2-yl)amino)-4-methylphenyl)-6-cyano-5-(trifluoromethyl)picolinamide]
29 | 20 to 100 nM | Cc1ncc(C(=O)Nc2cccc(C(F)(F)F)c2)cc1Nc1ncccc1-c1ncnc2[nH]cnc12 [Compound I-52, 5-((3-(9H-purin-6-yl)pyridin-2-yl)amino)-6-methyl-N-(3-(trifluoromethyl)phenyl)nicotinamide]
30 | < 20 nM | Cc1ccc(NC(=O)c2cc(C(F)(F)F)c(OCCO)cn2)cc1Nc1ncccc1-c1ncnc2[nH]cnc12 [IA-104, N-(3-(3-(9H-purin-6-yl)pyridin-2-ylamino)-4-methylphenyl)-5-(2-hydroxyethoxy)-4-(trifluoromethyl)picolinamide]
31 | < 20 nM | Cc1ccc(NC(=O)c2cc(C(F)(F)F)ccn2)cc1Nc1ncccc1-c1ncnc2[nH]cnc12 [Compound I-2, N-(3-(3-(9H-Purin-6-yl)pyridin-2-ylamino)-4-methylphenyl)-4-(trifluoromethyl)picolinamide]
32 | 20 to 100 nM | Cc1ccc(NC(=O)c2cc(C(F)(F)F)ccn2)cc1Nc1ncccc1-c1ncnc2[nH]c(OCCO)nc12 [IA-125, N-(3-(3-(8-(2-hydroxyethoxy)-9H-purin-6-yl)pyridin-2-ylamino)-4-methylphenyl)-4-(trifluoromethyl)picolinamide]
33 | < 20 nM | Cc1ccc(NC(=O)c2nccc(C(F)(F)F)c2C)cc1Nc1ncccc1-c1ncnc2[nH]cnc12 [Compound I-65, N-(3-((3-(9H-purin-6-yl)pyridin-2-yl)amino)-4-methylphenyl)-3-methyl-4-(trifluoromethyl)picolinamide]
34 | 20 to 100 nM | CCc1cnc(C(=O)Nc2ccc(C)c(Nc3ncccc3-c3ncnc4[nH]cnc34)c2)cc1C(F)(F)F [IA-92, N-(3-(3-(9H-purin-6-yl)pyridin-2-ylamino)-4-methylphenyl)-5-ethyl-4-(trifluoromethyl)picolinamide]
35 | 100 to 500 nM | Cc1cc(NC(=O)c2cc(C(F)(F)F)ccn2)cc(Nc2ncccc2-c2ncnc3[nH]cnc23)c1C [Compound I-63, N-(3-((3-(9H-purin-6-yl)pyridin-2-yl)amino)-4,5-dimethylphenyl)-4-(trifluoromethyl)picolinamide]
